Experimental data reported in ChEMBL document CHEMBL1201862, “PubChem BioAssay data set” (2004).
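Grown in 96-well plates, cells were treated for 48 hours with each compound at five concentrations. Insufficient inhibition: endpoint recorded as highest concentration tested. GI50 is the concentration that inhibits growth by half.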 Calls of active or inactive are those of the source. No stated cut-off is given here; in the data, active = GI50 up to about 1.1 µM and inactive = higher.

Legend:
Assay in all cases: DTP human tumour cell line panel, 48 h
RPMI-8226 = system: RPMI-8226
HCT-116 = system: HCT-116
SN12C = system: SN12C
SK-MEL-2 = system: SK-MEL-2
K562 = system: K562
KM12 = system: KM12
786-0 = system: 786-0
NCI-H226 = system: NCI-H226
HCC 2998 = system: HCC 2998
UACC-257 = system: UACC-257
COLO 205 = system: COLO 205
MOLT-4 = system: MOLT-4
SW-620 = system: SW-620
MDA-MB-435 = system: MDA-MB-435
Hs-578T = system: Hs-578T
OVCAR-8 = system: OVCAR-8
SF-268 = system: SF-268
OVCAR-4 = system: OVCAR-4

Structure (SMILES)	GI50 (RPMI-8226)	GI50 (HCT-116)	GI50 (SN12C)	GI50 (SK-MEL-2)	GI50 (K562)	GI50 (KM12)	GI50 (786-0)	GI50 (NCI-H226)	GI50 (HCC 2998)	GI50 (UACC-257)	GI50 (COLO 205)	GI50 (MOLT-4)	GI50 (SW-620)	GI50 (MDA-MB-435)	GI50 (Hs-578T)	GI50 (OVCAR-8)	GI50 (SF-268)	GI50 (OVCAR-4)
Cc1ccc(S(=O)(=O)Nc2cc(O)nc3c2CCC3)cc1	43.2 µM (inactive)	> 100 µM (inactive)	> 100 µM (inactive)	> 100 µM (inactive)	> 100 µM (inactive)	> 100 µM (inactive)	> 100 µM (inactive)	> 100 µM (inactive)	> 100 µM (inactive)	> 100 µM (inactive)	> 100 µM (inactive)	42.9 µM (inactive)	> 100 µM (inactive)	> 100 µM (inactive)	> 100 µM (inactive)	> 100 µM (inactive)	> 100 µM (inactive)	57.1 µM (inactive)
Nc1cccc2nsnc12	17.8 µM (inactive)	> 100 µM (inactive)	> 100 µM (inactive)	> 100 µM (inactive)	16.7 µM (inactive)	20.7 µM (inactive)	> 100 µM (inactive)	> 100 µM (inactive)	> 84.3 µM (inactive)	> 100 µM (inactive)	29.3 µM (inactive)	12.9 µM (inactive)	> 100 µM (inactive)	31.6 µM (inactive)	> 100 µM (inactive)	> 100 µM (inactive)	> 86.3 µM (inactive)	> 100 µM (inactive)
COc1ccc(S(=O)(=O)N2C(=O)CCC2C(=O)NN)cc1 (stereo unspecified)	> 100 µM (inactive)	> 100 µM (inactive)	> 100 µM (inactive)	> 100 µM (inactive)	> 100 µM (inactive)	> 100 µM (inactive)	> 100 µM (inactive)	> 100 µM (inactive)	> 100 µM (inactive)	> 100 µM (inactive)	> 100 µM (inactive)	> 100 µM (inactive)	> 100 µM (inactive)	> 100 µM (inactive)	61.8 µM (inactive)	> 100 µM (inactive)		> 100 µM (inactive)
CN(C)C(=O)C(NCCO)c1ccccc1 (stereo unspecified)	27.9 µM (inactive)	53.7 µM (inactive)	> 100 µM (inactive)	> 100 µM (inactive)		85.7 µM (inactive)	> 100 µM (inactive)	> 100 µM (inactive)	> 100 µM (inactive)	48.3 µM (inactive)	> 100 µM (inactive)	22.4 µM (inactive)	> 100 µM (inactive)	79.4 µM (inactive)	> 100 µM (inactive)	> 100 µM (inactive)	> 100 µM (inactive)	> 100 µM (inactive)
CCOC(=O)c1csc(C(CSCc2ccc(OC)cc2)N2C(=O)c3ccccc3C2=O)n1 (stereo unspecified)	38 µM (inactive)	49.1 µM (inactive)	> 100 µM (inactive)		33.9 µM (inactive)	> 100 µM (inactive)	88.1 µM (inactive)	> 100 µM (inactive)	> 100 µM (inactive)	> 100 µM (inactive)	> 100 µM (inactive)	31.5 µM (inactive)	50.2 µM (inactive)	54.8 µM (inactive)	> 100 µM (inactive)	> 100 µM (inactive)	> 100 µM (inactive)	> 100 µM (inactive)
CCN(C(C)=O)c1cnc(/C=N/NC(N)=S)c2ccccc12	3.08 µM (inactive)	2.67 µM (inactive)	3.21 µM (inactive)		4 µM (inactive)	2.94 µM (inactive)	1.61 µM (inactive)	3.44 µM (inactive)	11 µM (inactive)	30.1 µM (inactive)	4.83 µM (inactive)	1.96 µM (inactive)	5.68 µM (inactive)	4.42 µM (inactive)	80.5 µM (inactive)	2.29 µM (inactive)	1.58 µM (inactive)	9.31 µM (inactive)
CC(OC(C)(C)C)[C@H](NC(=O)OCc1ccccc1)C(=O)NC(OCc1ccccc1)[C@H]1COC(C)(C)O1 (stereo partly specified)		50.7 µM (inactive)	> 10 µM (inactive)	> 10 µM (inactive)	> 10 µM (inactive)	> 10 µM (inactive)	> 10 µM (inactive)	> 10 µM (inactive)	> 10 µM (inactive)	> 10 µM (inactive)	> 10 µM (inactive)	> 10 µM (inactive)	> 10 µM (inactive)	> 10 µM (inactive)	> 10 µM (inactive)	> 10 µM (inactive)	40.3 µM (inactive)	> 10 µM (inactive)
N#C/C(=C/n1c(=S)[nH]c2ccccc21)C(N)=O	> 100 µM (inactive)	> 100 µM (inactive)	> 100 µM (inactive)	> 100 µM (inactive)	> 100 µM (inactive)	> 100 µM (inactive)	> 100 µM (inactive)	> 100 µM (inactive)	> 100 µM (inactive)	> 100 µM (inactive)	> 100 µM (inactive)	> 100 µM (inactive)	> 100 µM (inactive)	> 100 µM (inactive)	> 100 µM (inactive)	> 100 µM (inactive)	> 100 µM (inactive)	> 100 µM (inactive)
CNc1cccc2c1C(C)C[C@]1(C)C(=O)Nc3ccccc3[C@H]21 (stereo partly specified)	54.6 µM (inactive)	18.7 µM (inactive)	21 µM (inactive)	24.1 µM (inactive)	> 100 µM (inactive)	26.1 µM (inactive)	17.9 µM (inactive)	24.9 µM (inactive)	51.3 µM (inactive)	13.4 µM (inactive)	29.8 µM (inactive)	32.8 µM (inactive)	33.9 µM (inactive)	23.5 µM (inactive)	27.7 µM (inactive)	19.1 µM (inactive)	34 µM (inactive)	18.1 µM (inactive)
O=C(OCc1ccccc1)c1nc2ccccc2n1S(=O)(=O)c1ccccc1	> 100 µM (inactive)	> 100 µM (inactive)	> 100 µM (inactive)	> 100 µM (inactive)	> 100 µM (inactive)	> 100 µM (inactive)	> 100 µM (inactive)	> 100 µM (inactive)	> 100 µM (inactive)	> 100 µM (inactive)	88.7 µM (inactive)	> 100 µM (inactive)	> 100 µM (inactive)	> 100 µM (inactive)	> 100 µM (inactive)	> 100 µM (inactive)	> 100 µM (inactive)	> 100 µM (inactive)
COc1ccccc1N(CN1C(=O)CCC1C(=O)O)C(C)=O (stereo unspecified)	> 100 µM (inactive)	> 100 µM (inactive)	> 100 µM (inactive)	> 100 µM (inactive)	> 100 µM (inactive)	> 100 µM (inactive)	> 100 µM (inactive)	> 100 µM (inactive)	> 100 µM (inactive)	> 100 µM (inactive)	> 100 µM (inactive)	> 100 µM (inactive)	> 100 µM (inactive)	> 100 µM (inactive)	> 100 µM (inactive)	> 100 µM (inactive)	53 µM (inactive)	> 100 µM (inactive)
CC[C@@]1(O)C(=O)OCc2c1cc1n(c2=O)Cc2c-1nc1ccccc1c2/C=N\NC(=O)C(N)Cc1c[nH]cn1 (stereo partly specified)	0.356 µM (active)	0.43 µM (active)	0.0673 µM (active)	7.74 µM (inactive)	0.468 µM (active)	2.38 µM (inactive)	0.213 µM (active)	0.571 µM (active)	1.51 µM (inactive)	2.68 µM (inactive)	8.39 µM (inactive)	0.0259 µM (active)	0.148 µM (active)	1.37 µM (inactive)	> 64.9 µM (inactive)	0.184 µM (active)	0.0545 µM (active)	4.41 µM (inactive)
COC(=O)/C(=N\N)C(C(=O)C(=O)Nc1cc(Cl)ccc1Cl)c1nc2ccc([N+](=O)[O-])cc2nc1O (stereo unspecified)	> 100 µM (inactive)	> 100 µM (inactive)	> 100 µM (inactive)	> 100 µM (inactive)	> 100 µM (inactive)	> 100 µM (inactive)	> 100 µM (inactive)	> 100 µM (inactive)	> 100 µM (inactive)	> 100 µM (inactive)		> 100 µM (inactive)	> 100 µM (inactive)	> 100 µM (inactive)	47.9 µM (inactive)	> 100 µM (inactive)	> 100 µM (inactive)	> 100 µM (inactive)
CCOP(=O)(OCC)/C(C#N)=C/c1c(C)[nH]c2ccccc12	> 100 µM (inactive)	> 100 µM (inactive)	> 100 µM (inactive)		> 100 µM (inactive)	> 100 µM (inactive)	> 100 µM (inactive)	> 100 µM (inactive)	> 100 µM (inactive)	> 100 µM (inactive)	> 100 µM (inactive)	> 100 µM (inactive)	> 100 µM (inactive)	> 100 µM (inactive)	> 100 µM (inactive)	> 100 µM (inactive)	> 100 µM (inactive)	> 100 µM (inactive)
C=CCn1c(=O)c2ccccc2[n+]2c(C)c(C(=O)OCC)sc12	> 100 µM (inactive)	> 100 µM (inactive)	> 100 µM (inactive)	> 100 µM (inactive)	> 100 µM (inactive)	> 100 µM (inactive)	> 100 µM (inactive)	> 100 µM (inactive)	> 100 µM (inactive)	> 100 µM (inactive)	> 100 µM (inactive)	> 100 µM (inactive)	> 100 µM (inactive)	> 100 µM (inactive)	> 100 µM (inactive)	> 100 µM (inactive)	> 100 µM (inactive)	> 100 µM (inactive)
COc1cc2ccccc2oc1=O	> 100 µM (inactive)	> 100 µM (inactive)	> 100 µM (inactive)	23.3 µM (inactive)	> 100 µM (inactive)	> 100 µM (inactive)	> 100 µM (inactive)	> 100 µM (inactive)	78.2 µM (inactive)	> 100 µM (inactive)	> 100 µM (inactive)	67.3 µM (inactive)	> 100 µM (inactive)	> 100 µM (inactive)	45.9 µM (inactive)	> 100 µM (inactive)	51.6 µM (inactive)	> 100 µM (inactive)
